# Experimental data from PubChem BioAssay AID192 (DTP/NCI, 2004).
# “And” between values parts separate entries of the source, which are not always exact repeats. Identical values can stand only once. Inconclusive results and toxic doses are left out. Numbered stars: 1 amine (or outer) side, 2 acyl side, 3 side chain; on linkers, the order of the positions; unused ones are H or OH. Bridge positions count the residues as written; N and C are the ends. Square brackets hold non-standard residues; d marks the D form. Peptide text beside a SMILES is read from it. I, II: the chains in the order shown. Actinocin(9to1) = Cc1c2oc3c(C)ccc(C(=O)[*:1])c3nc-2c(C(=O)[*:2])c(N)c1=O; NMeV = CN[CH](C(=O)O)C(C)C; Sar = CNCC(=O)O
# Tested on: BDF1 mice, B16 melanoma ip, median survival T/C
# Experiment: NCI In Vivo Anticancer Drug Screen. Data for tumor model B16 Melanoma (intraperitoneal) in B6D2F1 (BDF1) mice
# Conditions: endpoint: median survival time, higher = longer survival
# Method in brief: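 Transplantable tumor model; survival or tumor size measured; reported as T/C, treated over vehicle control.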
# [1] = dose: 50.0 mg/kg/injection, schedule: Q01DX009 (ip), vehicle: saline
# [2] = dose: 100.0 mg/kg/injection, schedule: Q01DX009 (ip), vehicle: saline
# [3] = dose: 200.0 mg/kg/injection, schedule: Q01DX009 (ip), vehicle: saline
# [4] = dose: 100.0 mg/kg/injection, schedule: Q01DX009 (ip), vehicle: Klucel (hydroxypropylcellulose) (HPC)
# [5] = dose: 200.0 mg/kg/injection, schedule: Q01DX009 (ip), vehicle: Klucel (hydroxypropylcellulose) (HPC)
# [6] = dose: 25.0 mg/kg/injection, schedule: Q01DX009 (ip), vehicle: saline with Tween-80
# [7] = dose: 50.0 mg/kg/injection, schedule: Q01DX009 (ip), vehicle: saline with Tween-80
# [8] = dose: 100.0 mg/kg/injection, schedule: Q01DX009 (ip), vehicle: saline with Tween-80
# [9] = dose: 400.0 mg/kg/injection, schedule: Q01DX009 (ip), vehicle: Klucel (hydroxypropylcellulose) (HPC)
# [10] = dose: 25.0 mg/kg/injection, schedule: Q01DX009 (ip), vehicle: water
# [11] = dose: 400.0 mg/kg/injection, schedule: Q01DX009 (ip), vehicle: saline
# [12] = dose: 200.0 mg/kg/injection, schedule: Q01DX009 (ip), vehicle: saline with Tween-80
# [13] = dose: 400.0 mg/kg/injection, schedule: Q01DX009 (ip), vehicle: saline with Tween-80
# [14] = dose: 12.5 mg/kg/injection, schedule: Q01DX009 (ip), vehicle: saline
# [15] = dose: 25.0 mg/kg/injection, schedule: Q01DX009 (ip), vehicle: saline
# [16] = dose: 6.25 mg/kg/injection, schedule: Q01DX009 (ip), vehicle: saline
smiles,measurement,setting,value
CC1CN1P(=O)(OCCC#N)N1CC1C (centres undefined),T/C,[1],121 % of control
same,T/C,[2],115 % of control
same,T/C,[3],120 % of control
CC(=O)Oc1ccc(C)cc1,T/C,"dose: 50.0 mg/kg/injection, schedule: Q01DX009 (ip), vehicle: Klucel (hydroxypropylcellulose) (HPC)",103 % of control
same,T/C,[4],112 % of control
same,T/C,[5],103 % of control
COc1cc(OC)c(/C=C/c2c3ccccc3cc[n+]2C)c(OC)c1,T/C,"dose: 0.78 mg/kg/injection, schedule: Q01DX009 (ip), vehicle: saline with Tween-80",97 % of control
same,T/C,"dose: 1.56 mg/kg/injection, schedule: Q01DX009 (ip), vehicle: saline with Tween-80",102 % of control
CCOC(=O)c1[nH]c(C#N)c(C(=O)OCC)c1C,T/C,[6],95 % of control
same,T/C,[7],95 % of control
same,T/C,[8],88 % of control
O=COCCc1ccccc1,T/C,[4],113 % of control
same,T/C,[5],103 % of control
same,T/C,[9],96 % of control
NC(CNC(=O)CBr)C(=O)O (centres undefined),T/C,"dose: 6.25 mg/kg/injection, schedule: Q01DX009 (ip), vehicle: water",109 % of control
same,T/C,"dose: 12.5 mg/kg/injection, schedule: Q01DX009 (ip), vehicle: water",104 % of control
same,T/C,[10],122 % of control
[Cl][Pt+2][Cl].[NH-]C1CCC1.[NH-]C1CCC1,T/C,"dose: 0.5 mg/kg/injection, schedule: Q01DX009 (ip), vehicle: saline with Tween-80",108 % of control
same,T/C,"dose: 1.0 mg/kg/injection, schedule: Q01DX009 (ip), vehicle: saline with Tween-80",117 % of control
same,T/C,"dose: 2.0 mg/kg/injection, schedule: Q01DX009 (ip), vehicle: saline with Tween-80",115 % of control
same,T/C,"dose: 5.0 mg/kg/injection, schedule: Q01DX009 (ip), vehicle: Klucel (hydroxypropylcellulose) (HPC)",112 % of control
COc1c(Cl)cc2c(c1OC)N(C)C1N3C(=O)C4(C)SSC3(C(=O)N4C)C(O)C21O (centres undefined),T/C,"dose: 0.12 mg/kg/injection, schedule: Q01DX009 (ip), vehicle: Klucel (hydroxypropylcellulose) (HPC)",103 % of control
same,T/C,"dose: 0.25 mg/kg/injection, schedule: Q01DX009 (ip), vehicle: Klucel (hydroxypropylcellulose) (HPC)",106 % of control
CNC(=O)OCC(Cl)(Cl)Cl,T/C,"dose: 75.0 mg/kg/injection, schedule: Q01DX009 (ip), vehicle: Klucel (hydroxypropylcellulose) (HPC)",102 % of control
same,T/C,"dose: 150.0 mg/kg/injection, schedule: Q01DX009 (ip), vehicle: Klucel (hydroxypropylcellulose) (HPC)",114 % of control
same,T/C,"dose: 300.0 mg/kg/injection, schedule: Q01DX009 (ip), vehicle: Klucel (hydroxypropylcellulose) (HPC)",102 % of control
CCCCCCCCCCCCCCCCCC(=O)Nc1ccn(C2OC(CO)C(O)C2O)c(=O)n1 (centres undefined),T/C,"dose: 12.5 mg/kg/injection, schedule: Q01DX009 (ip), vehicle: saline with Tween-80",154 % of control
same,T/C,[6],165 % of control and 203 % of control
Cc1ccc(C2NC(=O)c3ccccc3N2)c(C)c1 (centres undefined),T/C,[4],109 % of control
same,T/C,[5],109 % of control
same,T/C,[9],109 % of control
c1ccc(COB(OCc2ccccc2)OCc2ccccc2)cc1,T/C,[2],108 % of control
same,T/C,[3],97 % of control
same,T/C,[11],87 % of control
C/C(C/C(C)=N/O)=N/O.C/C(C/C(C)=N/O)=N\O.[Cl][Rh][Cl],T/C,[7],96 % of control
same,T/C,[8],98 % of control
same,T/C,[12],96 % of control
same,T/C,[13],92 % of control
CS(=O)(=O)ON1C(=O)c2ccccc2C1=O,T/C,"dose: 1.56 mg/kg/injection, schedule: Q01DX009 (ip), vehicle: Klucel (hydroxypropylcellulose) (HPC)",100 % of control
same,T/C,"dose: 3.12 mg/kg/injection, schedule: Q01DX009 (ip), vehicle: Klucel (hydroxypropylcellulose) (HPC)",98 % of control
same,T/C,"dose: 6.25 mg/kg/injection, schedule: Q01DX009 (ip), vehicle: Klucel (hydroxypropylcellulose) (HPC)",94 % of control
C/C=C(\C)C(=O)N/N=C\c1cc(Cl)cc(Cl)c1O,T/C,"dose: 25.0 mg/kg/injection, schedule: Q01DX009 (ip), vehicle: olive oil, sesame oil, peanut oil",88 % of control
same,T/C,"dose: 100.0 mg/kg/injection, schedule: Q01DX009 (ip), vehicle: olive oil, sesame oil, peanut oil",89 % of control
same,T/C,"dose: 200.0 mg/kg/injection, schedule: Q01DX009 (ip), vehicle: olive oil, sesame oil, peanut oil",86 % of control
CCCCCCCCN(C)/N=N/c1nc[nH]c1C(N)=O,T/C,"dose: 37.5 mg/kg/injection, schedule: Q01DX009 (ip), vehicle: saline with Tween-80",121 % of control
same,T/C,"dose: 75.0 mg/kg/injection, schedule: Q01DX009 (ip), vehicle: saline with Tween-80",123 % of control
CCOC1=CCN(S(=O)(=O)c2ccc(C)cc2)c2ccc(OC)cc21,T/C,"dose: 100.0 mg/kg/injection, schedule: Q04DX003 (ip), vehicle: Klucel (hydroxypropylcellulose) (HPC)",102 % of control
same,T/C,"dose: 200.0 mg/kg/injection, schedule: Q04DX003 (ip), vehicle: Klucel (hydroxypropylcellulose) (HPC)",104 % of control
same,T/C,"dose: 400.0 mg/kg/injection, schedule: Q04DX003 (ip), vehicle: Klucel (hydroxypropylcellulose) (HPC)",94 % of control
O=C1C(Cl)=C(N=Nc2c(Cl)c(O)c3ccccc3c2O)C(=O)c2ccccc21,T/C,[14],89 % of control
same,T/C,[15],86 % of control
"Cc1c2oc3c(C)ccc(C(=O)NC4C(=O)NC(C(C)C)C(=O)N(C)CC(=O)N(C)CC(=O)N(C)C(C(C)C)C(=O)OC4C)c3nc-2c(C(=O)NC2C(=O)NC(C(C)C)C(=O)N(C)CC(=O)N(C)CC(=O)N(C)C(C(C)C)C(=O)OC2C)c(N)c1=O (centres undefined) (I: TV[Sar][Sar][NMeV] / II: TV[Sar][Sar][NMeV]; ester I:1-I:C, II:1-II:C; linker I:N-II:N via Actinocin(9to1); configuration not given here)",T/C,"dose: 0.71 mg/kg/injection, schedule: Q01DX009 (ip), vehicle: water",161 % of control
same,T/C,"dose: 1.07 mg/kg/injection, schedule: Q01DX009 (ip), vehicle: water",161 % of control
same,T/C,"dose: 125.0 micrograms/kg/injection, schedule: Q01DX009 (ip), vehicle: saline + alcohol",112 % of control
same,T/C,"dose: 375.0 micrograms/kg/injection, schedule: Q04DX003 (ip), vehicle: saline + alcohol",117 % of control and 123 % of control
same,T/C,"dose: 1500.0 micrograms/kg/injection, schedule: Q04DX003 (ip), vehicle: saline + alcohol",162 % of control
same,T/C,"dose: 3000.0 micrograms/kg/injection, schedule: Q04DX003 (ip), vehicle: saline + alcohol",159 % of control
Cc1ccc(NS(=O)(=O)c2ccc(F)cc2)c(C)c1,T/C,[4],106 % of control
same,T/C,[5],110 % of control
same,T/C,[9],93 % of control
O=[N+]([O-])c1ccc2ccccc2c1I,T/C,[8],101 % of control
same,T/C,[12],103 % of control
same,T/C,[13],99 % of control
COc1ccc(CSC(=S)NNc2ccccc2)cc1,T/C,[4],107 % of control
same,T/C,[5],103 % of control
same,T/C,[9],106 % of control
NC(=O)c1csc(C2OC(CO)C(O)C2O)n1 (centres undefined),T/C,[10],103 % of control
same,T/C,"dose: 50.0 mg/kg/injection, schedule: Q01DX009 (ip), vehicle: water",99 % of control
same,T/C,"dose: 100.0 mg/kg/injection, schedule: Q01DX009 (ip), vehicle: water",104 % of control
same,T/C,"dose: 200.0 mg/kg/injection, schedule: Q01DX009 (ip), vehicle: water",111 % of control
same,T/C,"dose: 400.0 mg/kg/injection, schedule: Q01DX009 (ip), vehicle: water",110 % of control
same,T/C,"dose: 800.0 mg/kg/injection, schedule: Q01DX009 (ip), vehicle: water",99 % of control
N#CCCCN1CCCCC1,T/C,[16],100 % of control
same,T/C,[14],100 % of control
same,T/C,[15],111 % of control
COC1=NCN=C2SC=C(N)N=C12,T/C,"dose: 3.13 mg/kg/injection, schedule: Q01DX009 (ip), vehicle: saline",105 % of control
same,T/C,[16],100 % of control and 109 % of control
same,T/C,[14],96 % of control and 98 % of control
same,T/C,[1],98 % of control and 100 % of control
O=C1Nc2ccc(Cl)cc2C(c2ccccc2)=NC1O (centres undefined),T/C,[16],116 % of control
same,T/C,[1],95 % of control
same,T/C,[2],95 % of control
same,T/C,[3],89 % of control
same,T/C,[11],89 % of control
CC(=O)C1(O)CCCCC1,T/C,"dose: 100.0 mg/kg/injection, schedule: Q04DX003 (ip), vehicle: saline",95 % of control
same,T/C,"dose: 200.0 mg/kg/injection, schedule: Q04DX003 (ip), vehicle: saline",100 % of control
same,T/C,"dose: 400.0 mg/kg/injection, schedule: Q04DX003 (ip), vehicle: saline",100 % of control
C[Si](C)(C)Cc1ccccc1,T/C,[4],114 % of control
same,T/C,[5],109 % of control
